Test results: patent US10273313B2, “Multimeric mannosides, a process for preparing the same and their uses as a drug” (CENTRE NATIONAL DE LA RECHERCHE SCIENTIFIQUE, priority 2012, dated 2019)
pKd: −log10 of the molar value. Values after ≈ are worked out from the molar mass of the structure shown. Read-outs that look alike come from different tables or passages of the source.

Experiments:
[1] = tested on: AIEC LF82 bacteria in colonic loops of CEABAC10 mice expressing human CEACAM6; assay: Adhesion assay in colonic loops of CEABAC10 mice; type: in vivo; conditions: dose of 0.1 μmol, 4 h incubation
Protocol: E. coli strain LF82 was isolated from a chronic ileal lesion of a patient with Crohn's disease (CD). Bacteria were grown routinely in Luria-Bertani (LB) broth overnight at 37° C.
The transgenic mouse model CEABAC10 expressing the human CEACAM6 protein is available in the UMR Inserm/Université d'Auvergne 1071 led by Professor Arlette Darfeuille-Michaud at Clermont-Ferrand. This model is particularly suitable to reproduce the abnormal colonization by AIEC bacteria through the interaction with CEACAM6 molecules that were observed abnormally expressed in the ileal mucosa of Crohn's disease patients.
Three colonic loops were realized in anesthetized CEABAC10 mice. A volume of 100 μl of a bacterial suspension containing 6×10^6 bacteria/mL with or without inhibitory compound was injected into the loops (here, compound 2, example 1) or heptyl-mannose at a concentration of 100 μM). After an incubation period of 4 h, mice were euthanized and each loop was longitudinally opened, extensively washed and homogenized to numerate adherent LF82 bacteria. Bacterial adhesion was expressed as percentages of residual adhesion (100% corresponds to the adhesion in absence of any compound).

[2] = molecular target: T1, monovalent lectin domain of FimH (Escherichia coli, UniProt P08191); type: binding; conditions: for pKd / Molar ratio n meas / ΔG° / ΔH° / ΔS°: direct titration; for pKd: read-out: Kd
T1 construct: with the monovalent lectin domain of FimH were measured using isothermal calorimetry (ITC)
T1 sequence (P08191 22-179): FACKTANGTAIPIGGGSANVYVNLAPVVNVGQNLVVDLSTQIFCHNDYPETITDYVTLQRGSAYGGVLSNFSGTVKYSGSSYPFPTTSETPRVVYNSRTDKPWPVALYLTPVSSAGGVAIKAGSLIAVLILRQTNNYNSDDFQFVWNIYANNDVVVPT

[3] = tested on: AIEC LF82 bacteria adhesion to T84 intestinal epithelial cells; assay: Adhesion assay on T84 cells, pre-, co- and post-incubation protocols (Example 21.2); type: cell-based, Escherichia coli
Protocol: (§1) E. coli strain LF82 was isolated from a chronic ileal lesion of a patient with Crohn's disease (CD). Bacteria were grown routinely in Luria-Bertani (LB) broth overnight at 37° C. Intestinal epithelial cells T84 derived from colonic adenocarcinoma were maintained in an atmosphere containing 5% CO2 at 37° C. in DMEM/F12 (50/50) medium supplemented with 10% (v/v) heat-inactivated fetal calf serum (FCS), 1% L-glutamine, 100 000 U·l^−1 penicillin, 100 mg·l^−1 streptomycin, 25 μg·l^−1 amphotericin B.
T84 were seeded in 48-well plates at a concentration of 1.5×10^5 cells per well and grown for 48 h. AIEC LF82 bacteria were incubated 1 h with each mannoside prior the cell infection (pre-incubation protocol) or they were added simultaneously onto the cells (co-incubation protocol) in complete medium without antibiotics, containing heat inactivated fetal calf serum (FCS). Heptyl-mannose or compound 2 (example 1) were tested at a dose of 100; 10; 1 or 0.1 μM. D-D-mannose was tested at a dose of 10 000; 1 000; 100 or 10 μM and compound 1 (example 2bis) was tested at a concentration of 500; 100; 10 or 1 μM. Cells were infected with AIEC LF82 bacteria at a multiplicity of infection (MOI) of 10 bacteria per cell for 3 h at 37° C. For the post-incubation protocol, mannosides were incubated with cells for 3 h after bacterial infection. A washing step was realized before this post-incubation to eliminate non-adherent bacteria. Monolayers were washed in phosphate-buffered saline (PBS; pH 7.2) and cells were then lysed with 1% Triton X-100 in deionized water. Samples were diluted and plated onto Luria Bertani agar plates to determine the number of colony-forming units (CFU) recovered from the lysed monolayers. Results were expressed as percentages of residual adhesion, considering adhesion level of AIEC LF82 without mannoside treatment as 100%.

[4] = tested on: bladder cell line 5637; assay: Anti-adhesives for bacterial bladder cell binding; type: cell-based; conditions: ten-fold dilution series
Protocol: The anti-adhesive capacities of the HM-derivatized cyclodextrins 1-4 were tested in vitro on the bladder cell line 5637, in a procedure analogous as previously described (Wellens, A. et al., PLoS ONE 3: e2040 (2008)). The CD conjugates 1-4 were diluted in a ten-fold series. The minimum inhibitory concentrations (MIC) indicate the concentrations of sugars at which we see some inhibition of binding of FimH to the bladder cells, they do however not indicate complete inhibition. MIC values for the CD-conjugates 1-4 followed a similar trend as the inhibitory concentrations recorded in HIA.
The anti-adhesive capacities of the n-heptyl α-D-mannoside-derivatized cyclodextrins 1-4 were tested in vitro on the bladder cell line 5637, in a procedure analogous to as described in (Wellens, A. et al., PLoS ONE 3: e2040 (2008)). The ligands have been diluted 10-fold and this is also the resolution limit of these tests.

[5] = tested on: type-1 piliated clinical E. coli isolate UTI89; assay: Haemagglutination inhibition assay (HIA), guinea pig erythrocytes; type: cell-based, Escherichia coli; conditions: read-out: Minimal inhibitory concentration (MIC) on haemagglutination
Protocol: Haemagglutination is observed as the red blood cells being held in suspension through the formation of a space-filling cross-linked network with the fimbriated bacteria.
The UIT89 clinical isolate was grown statically 37° C. for 48 hours in LB medium and analysed for haemagglutination of guinea pig red blood cells. Both bacteria and red blood cells (RBCs) were washed 3 times in ice-cold PBS (17 mM K/NaH2PO4, 150 mM NaCl). PBS was used for all dilutions. 96-well round-bottom microtiter plates were used for the dilutions. The titer for agglutination was determined in a 2-fold dilution series in PBS of the bacteria in a volume of 25 μL. Well 1 is a negative control without bacteria but 25 μL PBS. 25 μL PBS and 50 μL 5% RBCs were added to a final 100 μL volume. Upon 1 hour at 4° C., the titer was determined as the lowest concentration of bacteria that led to haemagglutination.
A bacterial concentration of twice the determined haemagglutination titer was kept constant in the haemagglutination inhibition assays. First, a 2-fold dilution series of the inhibitory compounds was performed in 25 μL PBS. Instead, in well 1 only 25 μL PBS was added as a negative control. 25 μL of the bacterial solution and 50 μl of 5% red blood cells were added to reach a final volume of 100 μL.

[6] = tested on: AIEC LF82 strain adhesion to T84 intestinal epithelial cells; assay: Adhesion assay on T84 cells, cells incubated 1 h with mannoside prior infection (Example 21.1); type: cell-based, Escherichia coli
Protocol: as §1
T84 cells were seeded in 48-well tissue culture plates with 1.5×10^5 cells per well and grown for 48 h. Cells were incubated 1 h prior infection with each mannoside at a final concentration of 100; 10; 1 or 0.1 μM in complete medium without antibiotics, containing heat inactivated fetal calf serum (FCS) and were next infected with AIEC LF82 strain at a multiplicity of infection (MOI) of 10 bacteria per cell. After a 3 h incubation period at 37° C., the monolayers were washed in phosphate-buffered saline (PBS; pH 7.2). The epithelial cells were then lysed with 1% Triton X-100 in deionized water. Samples were diluted and plated onto Luria Bertani agar plates to determine the number of cfu recovered from the lysed monolayers.
Results were expressed in percentage of residual adhesion, considering adhesion level of AIEC LF82 without mannoside treatment as 100%.

[7] = tested on: E. coli strain UTI89 in the bladder of C3H/HeN mice; assay: In vivo inhibition in the murine cystitis model (instillation with UTI89)
Protocol: In vivo inhibition was evaluated by instilling 1-4 together with the UTI89 strain via a catheter in the bladder of C3H/HeN mice. […] A group of ten animals was used for each concentration of antagonists. […] The animals were sacrificed at a 6 h post infection time.
A murine model of urinary tract infection was used to test the ability of the compounds to inhibit the colonization of UTI89 in the bladder [Hung C. S.; Dodson, K. W., Hultgren S. J. Nat. Protoc. 2009, 4, 1230-1243 and Wellens A.; Garofalo C.; Nguyen H.; Van Gerven N.; Slättegård R.; Hernalsteens, J.-P.; Wyns, L.; Oscarson, S.; De Greve H.; Hultgren S. J.; Bouckaert, J. PLoS ONE 2008, 3, e2040]. The solution with high concentration of compounds was added to the resuspension of UTI89 before given to the mice. The eight-week old Female C3H/HeN mice (Harlan, Horst, The Netherlands) were anesthetized and infected via transurethral catheterization of 10^7 CFU UTI89 in solution in PBS, or in PBS with the compound in the mentioned concentration. The mice were sacrificed at 24 hours post infection and the bladders were harvested, homogenized and resuspended in PBS. The serial dilutions were spot on LB medium agar plates. The bacterial load was determined by counting the CFU recovered from the bladder. The animal experiments were approved by the Ethical Committer for Animal Experiments of Vrije Universiteit Brussel and complied with all relevant national legislation and institutional policies. The Mann-Whitney test was applied for the comparison of the data obtained from the untreated group and inhibition group in GraphPad Prism version 5.1 and two tailed P value were shown (GraphPad software).
A limited number of papers described the in vivo efficiency of anti-adhesive mannosides to treat UTIs.

[8] = excluding spiky heat signals (2)

CCCCCCCO[C@H]1O[C@H](CO)[C@@H](O)[C@H](O)[C@@H]1O [heptyl-mannoside, Heptyl α-D-mannoside, reference compound]
Bacterial adhesion in colonic loops compared with no inhibitor [1]: did not decrease significantly

OC[C@H]1O[C@H](OCCCCCCCOCc2cn(C[C@H]3O[C@@H]4O[C@H]5[C@H](O)[C@@H](O)[C@@H](O[C@H]6[C@H](O)[C@@H](O)[C@@H](O[C@H]7[C@H](O)[C@@H](O)[C@@H](O[C@H]8[C@H](O)[C@@H](O)[C@@H](O[C@H]9[C@H](O)[C@@H](O)[C@@H](O[C@H]%10[C@H](O)[C@@H](O)[C@@H](O[C@H]3[C@H](O)[C@H]4O)O[C@@H]%10CO)O[C@@H]9CO)O[C@@H]8CO)O[C@@H]7CO)O[C@@H]6CO)O[C@@H]5CO)nn2)[C@@H](O)[C@@H](O)[C@@H]1O [Compound 1]
Affinity of FimH for the ligand (in words) ([2]; ITC): micromolar range | pKd ([2]; data processed to exclude spiky heat signals (2)): 6.20 | pKd ([2]; data processed to include the whole binding event (1)): 5.79 | Molar ratio n meas [2, 8]: 0.36 | ΔG° [2, 8]: -8.4 kcal/mol | ΔH° [2, 8]: -5.6 kcal/mol | ΔS° [2, 8]: 9.7 cal/mol/deg | Molar ratio n meas ([2]; whole binding event (1)): 0.35 | ΔG° ([2]; whole binding event (1)): -7.8 kcal/mol | ΔH° ([2]; whole binding event (1)): -7.2 kcal/mol | ΔS° ([2]; whole binding event (1)): 2.2 cal/mol/deg | Bacteria adherent to intestinal epithelial cells eliminated ([3]; post-incubation, 500 μM): ≤ 40% | Concentration leading to decreased adhesion levels of at least 50% ([3]; pre-incubation assay): 500 µM | MIC, anti-adhesive potency on bladder cell line 5637 [4]: >400000 nM | MIC ([5]; UTI89 1.2 10^9 CFU/ml): >200 µM | MIC ([5]; UTI89 1.4 10^8 CFU/ml): 100 µM (≈ 149 µg/mL) | MIC ([5]; UTI89 7 10^7 CFU/ml): 63 µM (≈ 94 µg/mL) | Concentration reaching around 75% of binding inhibition (25% line) [6]: 500 µM | Inhibition efficiency at decreased concentration ([7]; 0.1 mM): important drop in the inhibition efficiency | Reduction of the level of infection ([7]; instillation of 1 mM with UTI89): 10 fold
